Results taken from patent US11712433B2, “Compositions comprising PKM2 modulators and methods of treatment using the same” (priority 2019, dated 2023).

Assays:
A549 lung cancer cells = assay: A549 xenograft, traditional versus serine- and glycine-depleted diet (Example 4); type: in vivo, athymic nude mice; conditions: 100 mpk oral gavage qd x 21
From the text: The traditional diet control was the Baker Amino Acid diet (catalog #5CC7, Test Diet) and the depleted diet was a modified Baker Amino Acid diet which compensated for serine and glycine depletion with increases in all remaining amino acids (catalog #5BJX, Test Diet).

A549 cells = assay: GSH-Glo glutathione levels in A549 cells (Example 10); type: cell-based; conditions: concentration of 10, 24 hours, relative to DMSO
Description: A549 cells were prepared according to Example 3 above. […] Cells were treated for 24 hours, and then glutathione levels were determined using a GSH-Glo assay kit and procedure from Promega (catalog #V6912).

MC38 tumors = assay: Metabolite levels in treated versus vehicle-treated MC38 tumors; type: in vivo, mice; conditions: treated compared to vehicle-treated MC38 tumors
From the text: Potential downstream biomarkers, including metabolism, immune gene alterations and immune phenotyping are currently under evaluation using LC-MS/MS, NanoString and flow cytometry.

Compound: Nc1cccc(F)c1CN(CCC1CCS(=O)(=O)CC1)C(=O)c1cc(C(F)(F)F)n[nH]1 [compound of Structure (I)]
- body weight (A549 lung cancer cells): no significant body weight reduction or fluctuation
- tumor volume (A549 lung cancer cells; serine- and glycine-depleted diet versus traditional diet): best reduction of tumor volume
- glutathione levels (A549 cells): decreased levels of glutathione
- levels of glucose 6-phosphate in tumors (MC38 tumors): decreased
- levels of glucose in tumors (MC38 tumors): Increased
- levels of lactate in tumors (MC38 tumors): decreased
- levels of phosphoenolpyruvate in tumors (MC38 tumors): decreased
- levels of phosphoglycerate in tumors (MC38 tumors): decreased
